According to patent US9561228B2 (Celgene Avilomics Research, Inc., priority 2013, dated 2017):

What was measured:
[1] = test system: ERK1/ERK2; assay: Measurement of Erk occupancy with biotinylated covalent probe I-299 (HT-29); assay type: cell-based; settings: HT-29 cells
Protocol: Measurement of Erk Occupancy with Biotinylated Covalent Probe
This experiment measured occupancy of the ERK1/ERK2 target by compounds according to the invention. This experiment was conducted using the Mesoscale Discovery test kit (Cat. # N45107B). One day before the assay, cells were split and added at 50,000 cells per well to a flat-bottom 96 well plate in 200 μl of growth medium. The next day, the medium was discarded, 100 μl medium containing test compound was added, and the plate was incubated at 37° C. for 120 minutes. The plate was rinsed once with PBS, and 50 μl lysis buffer with test compound was added. The plate was incubated at 4° C. for 30 min, and 30 μl of lysate was transferred to a plate to capture total and phosphor-Erk. Biotinylated probe 1-299 was diluted in lysis buffer and added to each well to a final concentration of 0.2 μM. The plate was incubated for 2 hr under constant shaking at room temperature. The plate was washed 3 times with MSD wash buffer. To detect the biotinylated probe bonding, tagged streptavidin was added (Mesoscale Discovery, Cat. # R32AD-1) at 1 μg/ml, 25 μl/well, followed by a 60 min incubation under shaking. The plate was washed 3 times, 150 μl MSD Read Buffer (Mesoscale Discovery, Cat. R61TX) was added and the plate was read in a plate reader manufactured by MSD. Percent occupancy by test compound at Erk was calculated by comparing the chemiluminescence readings from treated cells as compared to the chemiluminescence readings in untreated controls (which are defined as 100% probe bonding or 0% test compound occupancy). The amount of covalent probe signal divided by the amount of ERK signal for samples with no test compound treatment represents the maximum probe signal (MPS). In samples treated with test compound prior to covalent probe, the ratio of probe signal to ERK signal (the test probe signal, TPS) was reduced by the degree of target occupancy by the test compound which blocks covalent probe binding. The difference between the MPS and the TPS, divided by the MPS gave the target occupancy by the test compound. This ratio was then expressed as a percent occupancy. Results from this assay are provided in Table A below under the column “Occupancy EC50 (nM) HT-29.”

[2] = test system: A375 cells (malignant melanoma); assay: Inhibition of cancer cell proliferation, A375 (CellTiterGlo, 72 hours); assay type: cell-based; settings: Homo sapiens, A-375
Summary of the method: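 GI50 derived from % growth inhibition relative to untreated wells, after luminescence (CellTiterGlo, 10 min) was converted to cell counts using a standard curve. Compound given as 3-fold dilutions from a 2× 5,000 nM stock in serum-free DMEM; 3000 A375 cells/well, 72 h culture at 37 °C.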

[3] = test system: HT-29 cells (colorectal adenocarcinoma); assay: Inhibition of cancer cell proliferation, HT-29 (CellTiterGlo, 72 hours); assay type: cell-based; settings: Homo sapiens
Summary of the method: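 Proliferation over 72 h at 37° C was read by CellTiterGlo luminescence, translated to cell counts with a cell-density standard curve (390–50,000 cells). Compound added as 3-fold dilutions from a 5,000 nM two-fold stock to 3000 seeded HT-29 cells; GI50 from percent inhibition relative to untreated wells.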

[4] = test system: ERK1/2 phosphorylation of p90RSK in HT29 cells; assay: pRSK MSD Assay in HT29 cells; assay type: cell-based; settings: Homo sapiens, HT-29, read-out: ERK1/ERK2 PRSK MSD HT29 EC50
Summary of the method: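 Phospho-RSK level, read by electrochemiluminescence on RSK-antibody-coated MSD plates with a phospho-RSK/Sulfo-tag detection pair, reports cellular ERK1/2 activity. HT29 cells, kept overnight in 0.1% FBS medium, were exposed to compound for 120 min at 37° C before lysis.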

[5] = test system: HCT116 cells (colorectal carcinoma); assay: Inhibition of cancer cell proliferation, HCT116 (CellTiterGlo, 72 hours); assay type: cell-based; settings: Homo sapiens, HCT-116
Protocol: Measurement of Inhibition of Cancer Cell Proliferation (HCT116/Colorectal Carcinoma)
The following protocol used a HCT116 cell line, which cell line is a model for colorectal carcinoma. HCT116 cells were split and 3000 cells in 100 μl of growth medium were added per well of a flat-bottom 96-well plate. A two-fold test compound solution in serum-free RPM1640 was made, starting at 5,000 nM. Then, 3-fold serial dilutions were made across the plate from well 1 to well 11. Well 12, the last well in a row on the plate, was left as untreated control. 100 μl compound solutions were then transferred to the wells, so the total volume of media was 200 μl per well. Plates were returned to a 37° C. incubator, and the cells were cultured for 72 hours. To measure cell proliferation after 72 hours, media was discarded from the plates, 50 μl/well of fresh medium was added, and 50 μl CellTiterGlo solution was added (Promega Cat#G7573). The plate was covered with a dark lid and incubated for 10 min. A white sealing tape was applied to the bottom of the plate, and the plate was read in a luminescence plate reader. […] 50 μl CellTiterGlo was added per well, and the plate was read in a luminescence plate reader after 10 min. The reading was plotted vs. cell number to generate a standard curve and the equation of the curve fit. The compound-treated sample luminescence readings were converted to cell numbers using the curve-fit equation. The percent of inhibition, using untreated control as 100% growth, was then calculated. GI50 was then calculated by GraphPad Prism.

[6] = target: T1, Erk1 (Homo sapiens, UniProt P27361); assay: Protein Mass Modification Assay (intact protein MALDI, 60 min, 10-fold excess of compound); assay type: binding
T1 construct: purchased Millipore 14-439
T1 sequence (P27361 whole entry): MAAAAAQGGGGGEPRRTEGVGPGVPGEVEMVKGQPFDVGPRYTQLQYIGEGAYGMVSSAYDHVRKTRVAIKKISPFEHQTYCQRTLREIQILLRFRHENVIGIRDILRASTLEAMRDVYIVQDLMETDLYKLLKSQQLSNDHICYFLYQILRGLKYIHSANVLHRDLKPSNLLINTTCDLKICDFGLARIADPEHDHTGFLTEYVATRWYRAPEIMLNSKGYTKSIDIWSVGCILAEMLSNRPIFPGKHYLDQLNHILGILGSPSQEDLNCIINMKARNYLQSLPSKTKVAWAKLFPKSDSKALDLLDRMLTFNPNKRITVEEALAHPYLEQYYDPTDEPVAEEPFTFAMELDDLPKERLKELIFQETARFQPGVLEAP
Summary of the method: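 Percent covalent modification comes from the intact-protein MALDI centroid mass shift, treated versus control, divided by compound MW. Before analysis, human Erk1 was exposed to compound at 10-fold excess over protein for 60 min at room temperature.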

[7] = target: T2, MEK1 activated ERK1 (Homo sapiens, UniProt P27361); assay: Omnia continuous-read kinase assay for potency against MEK1 activated ERK1; assay type: biochemical; settings: MEK1 activated ERK1, ATP at KM; read-out: ERK1 Omnia WT ATP KM IC50
T2 construct: purchased Millipore (Billerica, Mass.) 14-439-K
T2 sequence (P27361 whole entry): as above
Summary of the method: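 Apparent IC50 came from initial reaction slopes (RFU vs time) plotted against log inhibitor with a variable-slope fit. Reactions were started with ERK1 (4 nM final) added to 50 μM ATP, roughly at its appKM, and 10 μM Sox-conjugated ST17 peptide in 20 mM Tris pH 7.5, 5 mM MgCl2. Fluorescence was monitored every 71 seconds.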

[8] = test system: ERK1/2 phosphorylation of p90RSK (pRSK); assay: Duration of action after washout: p-RSK inhibition at 6 hr; assay type: cell-based; settings: 6 hr after washout
Protocol: Measurement of Duration of Action of Test Compounds
One day before the assay, the cells were split and added at 50,000 cells per well in flat-bottom 96 well plate in 200 μl of growth media. The next day, the medium was discarded, 100 μl medium containing test compounds was added, and the plate was incubated at 37° C. for 120 minutes. The medium was discarded, and the cells were rinsed 3 times with PBS followed by addition of 200 μl of fresh grow medium. The plate was returned to a 37° C. incubator, and separate cell lysates were made using MSD lysis buffer after 0.25, 0.5, 1, 2, 4, 6, 8 and 18 or 24 hours. Thereafter, pRSK was measured as described above in the section entitled pRSK MSD Assay.

[9] = test system: ERK1/2 phosphorylation of p90RSK in A375 cells; assay: Detection of total and phosphor-RSK by MSD ELISA (A375); assay type: cell-based; settings: Homo sapiens, A-375, read-out: ERK1/ERK2 PRSK A375 EC50
Summary of the method: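 Electrochemiluminescent MSD ELISA: common RSK capture antibody, with pRSK Ser380 or total RSK detection antibodies plus SulfoTag secondaries. Samples were lysates of A375 cells exposed to compound for 2 h at 37° C after overnight culture in 0.1% FBS DMEM.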

EC50 [1] | GI50 [2] | GI50 [3] | EC50 [4] | GI50 [5] | IC50 [7] | EC50 [9] | SMILES | ERK1 Mass Mod (%) [6] | p-RSK inhibition at 6 hr (%) [8]
< 100 nM | 101 to 500 nM | < 100 nM | 101 to 500 nM | 101 to 500 nM | – | – | C=CC(=O)Nc1ccccc1Nc1nc(Nc2cc(CO)c(F)cc2C)ncc1C(F)(F)F [Compound I-77, N-(2-((2-((4-Fluoro-5-(hydroxymethyl)-2-methylphenyl)amino)-5-(trifluoromethyl)pyrimidin-4-yl)amino)phenyl)acrylamide] | – | –
< 100 nM | – | 101 to 500 nM | < 100 nM | – | – | – | C=CC(=O)Nc1ccccc1Nc1nc(NC2CCCC(C(N)=O)C2)ncc1Cl (racemic) [Compound I-102] | E (a mass modification of ≧70%) | –
< 100 nM | – | < 100 nM | 101 to 500 nM | – | – | – | C=CC(=O)Nc1cc(F)ccc1Nc1nc(Nc2cc(C(N)=O)ccc2C)ncc1Cl [Compound I-206, 3-((4-((2-acrylamido-4-fluorophenyl)amino)-5-chloropyrimidin-2-yl)amino)-4-methylbenzamide] | – | –
< 100 nM | 101 to 500 nM | < 100 nM | 501 to 999 nM | – | – | – | C=CC(=O)Nc1ccccc1Nc1nc(Nc2cc(C(N)=O)c(F)cc2C)ncc1C(F)(F)F [Compound I-76, 5-((4-((2-Acrylamidophenyl)amino)-5-(trifluoromethyl)pyrimidin-2-yl)amino)-2-fluoro-4-methylbenzamide] | – | –
– | < 100 nM | < 100 nM | < 100 nM | < 100 nM | – | – | C=CC(=O)Nc1ccccc1Nc1nc(Nc2cncc(OC)c2)ncc1C(F)(F)F [Compound I-86, N-(2-((2-((5-Methoxypyridin-3-yl)amino)-5-(trifluoromethyl)pyrimidin-4-yl)amino)phenyl)acrylamide] | E (a mass modification of ≧70%) | –
< 100 nM | – | 101 to 500 nM | < 100 nM | – | < 100 nM | – | C=CC(=O)Nc1ccccc1Nc1nc(N[C@@H]2CCC[C@H](C(N)=O)C2)ncc1C(F)(F)F (racemic) [Compound I-2, Rac-cis-3-((4-((2-acrylamidophenyl)amino)-5-(trifluoromethyl)pyrimidin-2-yl)amino)cyclohexanecarboxamide] | E (a mass modification of ≧70%) | –
< 100 nM | – | 101 to 500 nM | < 100 nM | – | – | – | C=CC(=O)Nc1ccccc1Nc1nc(Nc2ccc(F)cc2C#N)ncc1Cl [Compound I-211, N-(2-((5-chloro-2-((2-cyano-4-fluorophenyl)amino)pyrimidin-4-yl)amino)phenyl)acrylamide] | – | –
< 100 nM | – | < 100 nM | < 100 nM | – | – | – | C=CC(=O)Nc1ccccc1Nc1nc(Nc2cc(C(N)=O)c(F)cc2C)ncc1Cl [Compound I-214, 5-((4-((2-acrylamidophenyl)amino)-5-chloropyrimidin-2-yl)amino)-2-fluoro-4-methylbenzamide] | – | –
< 100 nM | – | < 100 nM | < 100 nM | – | – | – | C=CC(=O)Nc1ccccc1Nc1nc(Nc2cc(S(N)(=O)=O)ccc2C)ncc1Cl [Compound I-205, N-(2-((5-chloro-2-((2-methyl-5-sulfamoylphenyl)amino)pyrimidin-4-yl)amino)phenyl)acrylamide] | – | –
– | < 100 nM | < 100 nM | – | < 100 nM | – | < 100 nM | C=CC(=O)Nc1ccccc1Nc1nc(N[C@H]2CCCN(C(=O)CO)C2)ncc1C(F)(F)F [Compound I-15, (S)—N-(2-((2-((1-(2-hydroxyacetyl)piperidin-3-yl)amino)-5-(trifluoromethyl)pyrimidin-4-yl)amino)phenyl)acrylamide] | – | E (a p-RSK inhibition percent of ≧70%)
– | 101 to 500 nM | 101 to 500 nM | – | > 1000 nM | 101 to 500 nM | – | C=CC(=O)Nc1ccccc1Nc1nc(N[C@H]2CCCN(C(=O)C=O)C2)ncc1C(F)(F)F [Compound I-52, (S)—N-(2-((2-((1-(2-Oxoacetyl)piperidin-3-yl)amino)-5-(trifluoromethyl)pyrimidin-4-yl)amino)phenyl)acrylamide] | – | –
< 100 nM | – | 101 to 500 nM | < 100 nM | – | – | – | C=CC(=O)Nc1ccccc1Nc1nc(Nc2cc(C(N)=O)ccc2C)ncc1Cl [Compound I-319, 3-(4-(2-acrylamidophenylamino)-5-chloropyrimidin-2-ylamino)-4-methylbenzamide] | – | –

SMILES | EC50 [1] | GI50 [2] | GI50 [3] | EC50 [4] | GI50 [5] | IC50 [7] | EC50 [9] | ERK1 Mass Mod (%) [6] | p-RSK inhibition at 6 hr (%) [8]
C=CC(=O)Nc1cc(F)ccc1Nc1nc(Nc2ccc(F)cc2C)ncc1Cl [Compound I-212, N-(2-((5-chloro-2-((4-fluoro-2-methylphenyl)amino)pyrimidin-4-yl)amino)-5-fluorophenyl)acrylamide] | < 100 nM | – | 101 to 500 nM | < 100 nM | – | – | – | F (a mass modification of 31-69%) | –
C=CC(=O)Nc1cc(C)ccc1Nc1nc(Nc2cc(C(C)=O)ccc2C)ncc1Cl [Compound I-239, N-(2-((2-((5-acetyl-2-methylphenyl)amino)-5-chloropyrimidin-4-yl)amino)-5-methylphenyl)acrylamide] | – | 101 to 500 nM | 101 to 500 nM | – | 501 to 999 nM | 101 to 500 nM | – | E (key: E: a mass modification of ≧70%; F: a mass modification of 31-69%; G: a mass modification ≦30%) | –
C=CC(=O)Nc1cc(C)ccc1Nc1nc(N[C@H]2CCCN(C(C)=O)C2)ncc1Cl [Compound I-139, (S)—N-(2-((2-((1-acetylpiperidin-3-yl)amino)-5-chloropyrimidin-4-yl)amino)-5-methylphenyl)acrylamide] | – | < 100 nM | < 100 nM | < 100 nM | < 100 nM | – | – | E (a mass modification of ≧70%) | –
